Source: patent US8592594B2, “Tetrahydro-quinoline derivatives” (Hoffmann-La Roche Inc., priority 2010, dated 2013)

system: recombinant AMPK proteins (α1β1γ1, α2β1γ1, α1(1-335), α1(1-394) or α2(1-394)); assay: Scintillation Proximity Assay (SPA), AMPK activation; assay type: biochemical, human; conditions: effective concentration of activator for 50% of maximal enzyme activity; 50 nM AMPK, 2 μM ATP, 2 μM biotin-SAMS, 30° C., 2 hours
Protocol: Recombinant human AMPK α1β1γ1, α2β1γ1 or AMPK α subunit truncations α1(1-335), α1(1-394) and α2(1-394) were constructed, expressed and purified as described previously (Pang, T., Zhang, Z. S., Gu, M., Qiu, B. Y., Yu, L. F., Cao, P. R., Shao, W., Su, M. B., Li, J. Y., Nan, F. J., and Li, J. (2008). Rat liver AMPK heterotrimer enzyme was obtained from Upstate (Billerica, Mass., U.S.A.).
Scintillation Proximity Assay
Before the Scintillation Proximity Assay (SPA) assay, 200 nM recombinant AMPK proteins (α1β1γ1, α2β1γ1, α1(1-335), α1(1-394) or α2(1-394)) were fully phosphorylated as described previously (Pang et al., 2008). SPA reactions were performed in 96-well plates at a final volume of 50 μL containing 20 mM Tris-HCl pH 7.5, 5 mM MgCl2, 1 mM DTT, 2 μM biotin-SAMS, 2 μM ATP, 0.2 μCi/well [γ-^33P]ATP, and various amount of activator. Reactions were initiated by the addition of 50 nM recombinant AMPK proteins to the reaction solutions and incubated at 30° C. for 2 hours. After that, reactions were terminated by the addition of 40 μL stop solution containing 80 μg streptavidin-coated SPA beads per well, 50 mM ED TA, 0.1% Triton X-100 in PBS, pH 7.5 and incubated for 1 hour. Finally, a 160 μL suspension solution containing 2.4 M CsCl, 50 mM EDTA, and 0.1% Triton X-100 in PBS (pH 7.5) was added to the reaction solution to suspend SPA beads completely. SPA signals were determined with a Wallac MicroBeta plate counter (PerkinElmer) 30 min later for calculation of the amount of product formed. The amount of products formed in 2 hour was plotted against activator concentrations to determine the effective concentration of the activator (EC50) required for 50% of maximal enzyme activity.

SMILES | EC50 [µM]
CN1CCC(NC(=O)c2ccc3c(c2)C2(CCCC2)CC(c2cc(F)ccc2Br)N3)CC1 (centres unmarked) [Example 53, 2-(2-Bromo-5-fluoro-phenyl)-spiro(cyclopentane-1,4′-1′,2′,3′,4′-tetrahydroquinoline)-6-carboxylic acid (1-methyl-piperidin-4-yl)-amide] | 1.38
O=C(NC1CCC1)c1ccc2c(c1)C1(CCCC1)CC(c1cc(F)ccc1Br)N2 (centres unmarked) [Example 54, 2-(2-Bromo-5-fluoro-phenyl)-spiro(cyclopentane-1,4′-1′,2′,3′,4′-tetrahydroquinoline)-6-carboxylic acid cyclobutylamide] | 2.61
CNC(=O)c1ccc2c(c1)C1(CCCC1)CC(c1cc(F)ccc1Br)N2 (centres unmarked) [Example 55, 2-(2-Bromo-5-fluoro-phenyl)-spiro(cyclopentane-1,4′-1′,2′,3′,4′-tetrahydroquinoline)-6-carboxylic acid methylamide] | 3.7
CN1CCN(C(=O)c2ccc3c(c2)C2(CCCC2)CC(c2cc(F)ccc2Br)N3)CC1 (centres unmarked) [Example 58, [2-(2-Bromo-5-fluoro-phenyl)-spiro(cyclopentane-1,4′-1′,2′,3′,4′-tetrahydroquinolin)-6-yl]-(4-methyl-piperazin-1-yl)-methanone] | 3.74
O=C(NC1COC1)c1ccc2c(c1)C1(CCCC1)CC(c1cc(F)ccc1Br)N2 (centres unmarked) [Example 59, 2-(2-Bromo-5-fluoro-phenyl)-spiro(cyclopentane-1,4′-1′,2′,3′,4′-tetrahydroquinoline)-6-carboxylic acid oxetan-3-ylamide] | 11.3
CC(C)NC(=O)c1ccc2c(c1)C1(CCCC1)CC(c1cc(F)ccc1Br)N2 (centres unmarked) [Example 60, 2-(2-Bromo-5-fluoro-phenyl)-spiro(cyclopentane-1,4′-1′,2′,3′,4′-tetrahydroquinoline)-6-carboxylic acid isopropylamide] | 4.41
CNC(=O)c1ccc2c(c1)C1(CCCC1)CC(c1cccc(N3CCOCC3)c1)N2 (centres unmarked) [Example 63, 2-(3-Morpholin-4-yl-phenyl)-spiro(cyclopentane-1,4′-1′,2′,3′,4′-tetrahydroquinoline)-6-carboxylic acid methylamide] | 2.37
CC1(C)CC(c2cc(Cl)ccc2Cl)Nc2ccc(C(=O)NC3CCC3)cc21 (centres unmarked) [Example 66, 2-(2,5-Dichloro-phenyl)-4,4-dimethyl-1,2,3,4-tetrahydro-quinoline-6-carboxylic acid cyclobutylamide] | 5.53

More lines, now with the values ahead:

EC50 [µM] | SMILES
2.87 | CN(C)C(=O)c1ccc2c(c1)C(C)(C)CC(C(C)(C)c1ccccc1)N2 (centres unmarked) [Example 50, 4,4-Dimethyl-2-(1-methyl-1-phenyl-ethyl)-1,2,3,4-tetrahydro-quinoline-6-carboxylic acid dimethylamide]
3.58 | CN(C)C(=O)c1ccc2c(c1)C1(CCCC1)CC(c1cc(F)ccc1Br)N2 (centres unmarked) [Example 51, 2-(2-Bromo-5-fluoro-phenyl)-spiro(cyclopentane-1,4′-1′,2′,3′,4′-tetrahydroquinoline)-6-carboxylic acid dimethylamide]
4.84 | O=C(NC1CC1)c1ccc2c(c1)C1(CCCC1)CC(c1cc(F)ccc1Br)N2 (centres unmarked) [Example 52, 2-(2-Bromo-5-fluoro-phenyl)-spiro(cyclopentane-1,4′-1′,2′,3′,4′-tetrahydroquinoline)-6-carboxylic acid cyclopropylamide]
3.38 | O=C(NCCO)c1ccc2c(c1)C1(CCCC1)CC(c1cc(F)ccc1Br)N2 (centres unmarked) [Example 56, 2-(2-Bromo-5-fluoro-phenyl)-spiro(cyclopentane-1,4′-1′,2′,3′,4′-tetrahydroquinoline)-6-carboxylic acid (2-hydroxy-ethyl)-amide]
2.36 | O=C(c1ccc2c(c1)C1(CCCC1)CC(c1cc(F)ccc1Br)N2)N1CCOCC1 (centres unmarked) [Example 57, [2-(2-Bromo-5-fluoro-phenyl)-spiro(cyclopentane-1,4′-1′,2′,3′,4′-tetrahydroquinolin)-6-yl]-morpholin-4-yl-methanone]
5.98 | O=C(NC1CCC1)c1ccc2c(c1)C1(CCCC1)CC(c1cc(Cl)ccc1Cl)N2 (centres unmarked) [Example 61, 2-(2,5-Dichloro-phenyl)-spiro(cyclopentane-1,4′-1′,2′,3′,4′-tetrahydroquinoline)-6-carboxylic acid cyclobutylamide]
1.59 | O=C(NC1CCC1)c1ccc2c(c1)C1(CCCC1)CC(c1cccc(F)c1)N2 (centres unmarked) [Example 62, 2-(3-Fluoro-phenyl)-spiro(cyclopentane-1,4′-1′,2′,3′,4′-tetrahydroquinoline)-6-carboxylic acid cyclobutylamide]
7.68 | O=C(NC1CCC1)c1ccc2c(c1)C1(CCCC1)CC(c1cc(Cl)ccc1F)N2 (centres unmarked) [Example 64, 2-(5-Chloro-2-fluoro-phenyl)-spiro(cyclopentane-1,4′-1′,2′,3′,4′-tetrahydroquinoline)-6-carboxylic acid cyclobutylamide]
15.1 | CC1(C)CC(c2cc(Cl)ccc2F)Nc2ccc(C(=O)NC3CCC3)cc21 (centres unmarked) [Example 67, 2-(5-Chloro-2-fluoro-phenyl)-4,4-dimethyl-1,2,3,4-tetrahydro-quinoline-6-carboxylic acid cyclobutylamide]
1.56 | CC(CO)(CO)NC(=O)c1ccc2c(c1)C(C)(C)CC(c1cccc(N3CCOCC3)c1)N2 (centres unmarked) [Example 68, 4,4-Dimethyl-2-(3-morpholin-4-yl-phenyl)-1,2,3,4-tetrahydro-quinoline-6-carboxylic acid (2-hydroxy-1-hydroxymethyl-1-methyl-ethyl)-amide]
4.18 | O=C(NC1CCC1)c1ccc2c(c1)C1(CCCC1)CC(c1ccc(F)c(Cl)c1)N2 (centres unmarked) [Example 69, 2-(3-Chloro-4-fluoro-phenyl)-spiro(cyclopentane-1,4′-1′,2′,3′,4′-tetrahydroquinoline)-6-carboxylic acid cyclobutylamide]
9.17 | CCC1(C)CC(c2ccc(F)c(Cl)c2)Nc2ccc(C(=O)NC3CCC3)nc21 (centres unmarked) [Example 70, 6-(3-Chloro-4-fluoro-phenyl)-8-ethyl-8-methyl-5,6,7,8-tetrahydro-[1,5]naphthyridine-2-carboxylic acid cyclobutylamide]
